Experiment [1] concerns human breast cancer cell line MCF-7. Kind of experiment: Cancer cell growth inhibition test (CellTiter-Glo). The class given is cell-based. The note with it: MCF-7, 72 hours. On the procedure:
The human breast cancer cell line MCF-7 was treated with trypsin and harvested. The number of cells was counted, and about 3000 cells/80 μl per well were inoculated into a 96 well plate (Corning) and then incubated in a 37° C. incubator for 24 hours. Thereafter, the example compounds were diluted in a culture solution at various concentrations, and each well was treated with 20 μl and stored in a cell culture incubator for 72 hours. In the case of the group administered in combination, the example compounds and cisplatin or doxorubicin were diluted in a culture solution at various concentrations, and each well was treated with 20 μl. After 72 hours, each well was treated with 30 μl of CellTiter-Glo solution (Promega), and the luminescence was read on a Victor3 multi label reader (PerkinElmer).
Relative viability (%)=(value of each test well/value of well treated with DMSO alone)×100
The results obtained for each concentration for each example compound were the average values obtained from three wells, and PRIZM software was used for analysis of the results.
A general note: ATP-based viability assays read luminescence as a measure of living cells.

For another experiment, the target named is Chk1 kinase (Homo sapiens (Human), UniProt O14757). Kind of experiment: Chk1 kinase inhibitory activity (LanthaScreen TR-FRET). Conditions: graded. The class given is biochemical. On the procedure:
(§1) The compounds of Examples 1 to 66 were diluted at various concentrations and transferred to a 384-well plate by 5 μl, and 10 μl of a mixed solution (2×) of Chk1 kinase (Thermo, P3040) or Chk2 kinase (Thermo, PV3367) and a substrate (Thermo, PV3508) was added to wells treated with the compounds. 5 μl of an ATP solution at a 4× concentration was added to the test well and reacted at room temperature for 1 hour. 20 μl of LanthaScreen Terbium-CREB p-Ser 133 antibody (Thermo, PV3542) was added to the reaction well and incubated at room temperature for 30 minutes. Conversion data was measured by an EnVision 2014 multi label reader (PerkinElmer). The activity for each concentration was determined by the ratio (FRET ratio=FR) of the value obtained by dividing the value at 520 nm by the value at 490 nm among the emission wavelength values for each wavelength (Em520/Em490). The results obtained for each concentration of the compounds were the average values obtained in two wells, and the IC50 values of the compounds were calculated using PRIZM software for analysis of the results. IC50 in Table 7 was graded as follows.

For the next experiment, the target named is Chk2 kinase (Homo sapiens (Human), UniProt O96017). Kind of experiment: Chk2 kinase inhibitory activity (LanthaScreen TR-FRET). The note with it: graded. Type of experiment: biochemical. On the procedure: as §1
Setting [2] is: Homo sapiens, MCF7, 72 h, graded, read-out: Celltiter glo analysis (IC50).

Like-named read-outs stand apart in the source and are kept apart here.

Chain of Chk1 kinase (O14757 whole entry): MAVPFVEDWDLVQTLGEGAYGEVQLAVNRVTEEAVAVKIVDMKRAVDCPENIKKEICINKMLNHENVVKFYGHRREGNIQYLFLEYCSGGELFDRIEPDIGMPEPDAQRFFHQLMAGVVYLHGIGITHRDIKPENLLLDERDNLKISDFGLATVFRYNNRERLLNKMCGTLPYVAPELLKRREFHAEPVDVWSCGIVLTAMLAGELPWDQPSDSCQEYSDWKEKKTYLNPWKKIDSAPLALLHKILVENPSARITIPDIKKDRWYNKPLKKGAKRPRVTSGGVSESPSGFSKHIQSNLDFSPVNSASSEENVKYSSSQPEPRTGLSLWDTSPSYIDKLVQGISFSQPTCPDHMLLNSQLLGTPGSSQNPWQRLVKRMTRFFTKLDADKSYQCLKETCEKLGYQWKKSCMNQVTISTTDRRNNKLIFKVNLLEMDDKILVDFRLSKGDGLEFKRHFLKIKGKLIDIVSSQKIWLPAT
Chain of Chk2 kinase (O96017 whole entry): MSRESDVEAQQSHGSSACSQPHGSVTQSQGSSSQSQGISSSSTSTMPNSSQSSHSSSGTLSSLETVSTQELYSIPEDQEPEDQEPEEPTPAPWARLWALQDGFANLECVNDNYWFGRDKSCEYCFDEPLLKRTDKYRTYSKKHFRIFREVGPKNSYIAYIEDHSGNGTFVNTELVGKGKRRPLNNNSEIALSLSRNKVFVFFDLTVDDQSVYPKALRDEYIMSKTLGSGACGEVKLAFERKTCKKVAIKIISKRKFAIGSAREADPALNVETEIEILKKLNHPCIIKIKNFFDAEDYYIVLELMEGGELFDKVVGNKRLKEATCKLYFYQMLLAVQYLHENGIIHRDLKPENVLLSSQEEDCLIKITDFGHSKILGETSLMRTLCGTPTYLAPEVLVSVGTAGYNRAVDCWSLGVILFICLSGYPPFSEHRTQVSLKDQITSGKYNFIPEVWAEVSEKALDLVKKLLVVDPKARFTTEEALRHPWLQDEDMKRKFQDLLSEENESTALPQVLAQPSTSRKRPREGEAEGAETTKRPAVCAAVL

Consider `N#CCn1cc(-c2cccc(-c3cnc(N)c(C(=O)N[C@@H]4CNC[C@@H](F)C4)n3)c2)cn1` [Example 26, 3-amino-6-(3-(1-(cyanomethyl)-1H-pyrazol-4-yl)phenyl)-N-((3S,5S)-5-fluoropiperidin-3-yl) pyrazine-2-carboxamide], for which the IC50 was greater than 100000 nM in experiment [1] (setting [2]), 100 to 1000 nM against Chk1 kinase and 10 to 100 nM at Chk2 kinase.

Turning to `CC1(C)Cc2c(-c3cccc(-c4cnc(N)c(C(=O)N[C@@H]5CNC[C@@H](F)C5)n4)c3)cnn2C1` [Example 45, 3-amino-6-(3-(5,5-dimethyl-5,6-dihydro-4H-pyrrolo[1,2-b]pyrazol-3-yl)phenyl)-N-((3S,5S)-5-fluoropiperidin-3-yl)pyrazine-2-carboxamide], the IC50 was 10000 to 100000 nM in experiment [1] (setting [2]), 100 to 1000 nM on Chk1 kinase and no more than 10 nM against Chk2 kinase.

Take `CC(C)(O)Cn1cc(-c2cccc(-c3cnc(N)c(C(=O)N[C@H]4CCCNC4)n3)c2)cn1` [Example 30, (S)-3-amino-6-(3-(1-(2-hydroxy-2-methylpropyl)-1H-pyrazol-4-yl)phenyl)-N-(piperidin-3-yl)pyrazine-2-carboxamide]: the IC50 in experiment [1] (setting [2]) is greater than 100000 nM; at Chk1 kinase, 10 to 100 nM; against Chk2 kinase it was no more than 10 nM.

Turning to `CC(C)(O)Cn1cc(-c2ccc(F)c(-c3cnc(N)c(C(=O)N[C@@H]4CNCC(F)(F)C4)n3)c2)cn1` [Example 36, (S)-3-amino-N-(5,5-difluoropiperidin-3-yl)-6-(2-fluoro-5-(1-(2-hydroxy-2-methylpropyl)-1H-pyrazol-4-yl)phenyl)pyrazine-2-carboxamide], the IC50 is 10000 to 100000 nM in experiment [1] (setting [2]), greater than 1000 nM against Chk1 kinase and greater than 1000 nM against Chk2 kinase.

In the case of `Nc1ncc(-c2ccnc(-c3cnn(CC(F)(F)F)c3)c2)nc1C(=O)N[C@@H]1CNC[C@@H](F)C1` [Example 15, 3-amino-N-((3S,5S)-5-fluoropiperidin-3-yl)-6-(2-(1-(2,2,2-trifluoroethyl)-1H-pyrazol-4-yl)pyridin-4-yl)pyrazine-2-carboxamide], the IC50 in experiment [1] (Homo sapiens, MCF7, 72 h, alone, read-out: Administered alone (IC50)) was 11800 nM; in experiment [1] (setting [2]) it was no more than 10000 nM; in experiment [1] (combination with cisplatin, read-out: Administered in combination with cisplatin (IC50)), 2270 nM; in experiment [1] (combination with doxorubicin, read-out: Administered in combination with doxorubicin (IC50)), 3050 nM; against Chk1 kinase it was 100 to 1000 nM; against Chk2 kinase it was no more than 10 nM.

For the molecule `CC(C)(O)Cn1cc(-c2cccc(-c3cnc(N)c(C(=O)N[C@@H]4CNCC[C@H]4O)n3)c2)cn1` [Example 28, 3-amino-6-(3-(1-(2-hydroxy-2-methylpropyl)-1H-pyrazol-4-yl)phenyl)-N-((3R,4R)-4-hydroxypiperidin-3-yl)pyrazine-2-carboxamide], the IC50 is greater than 100000 nM in experiment [1] (setting [2]), greater than 1000 nM on Chk1 kinase and no more than 10 nM at Chk2 kinase.

Regarding `Cc1ccc(-c2cnn(CC(C)(C)O)c2)cc1-c1cnc(N)c(C(=O)N[C@@H]2CNCC(F)(F)C2)n1` [Example 38, (S)-3-amino-N-(5,5-difluoropiperidin-3-yl)-6-(5-(1-(2-hydroxy-2-methylpropyl)-1H-pyrazol-4-yl)-2-methylphenyl)pyrazine-2-carboxamide], the IC50 in experiment [1] (setting [2]) is 10000 to 100000 nM; on Chk1 kinase, greater than 1000 nM; on Chk2 kinase it was greater than 1000 nM.

For the molecule `Cn1cc(-c2cccc(-c3cnc(N)c(C(=O)N[C@@H]4CNC[C@@H](F)C4)n3)c2)cn1` [Example 17, 3-amino-N-((3S,5S)-5-fluoropiperidin-3-yl)-6-(3-(1-methyl-1H-pyrazol-4-yl)phenyl)pyrazine-2-carboxamide], the IC50 in experiment [1] (setting [2]) was 10000 to 100000 nM; on Chk1 kinase it was 10 to 100 nM; against Chk2 kinase, no more than 10 nM.

As to `CC1(C)Cc2c(-c3ccc(F)c(-c4cnc(N)c(C(=O)N[C@H]5CCC6(CC6)NC5)n4)c3)cnn2C1` (stereo in doubt) [Example 66, 3-amino-6-(5-(5,5-dimethyl-5,6-dihydro-4H-pyrrolo[1,2-b]pyrazol-3-yl)-2-fluorophenyl)-N-(4-azaspiro[2.5]octan-6-yl)pyrazine-2-carboxamide], the IC50 in experiment [1] (graded, read-out: Celltiter glo analysis (IC50)) is no more than 10000 nM; against Chk1 kinase it was greater than 1000 nM; against Chk2 kinase it was 10 to 100 nM.

Broadly, the IC50 is the point on the concentration scale where inhibition reaches its midpoint.

The record behind these values is patent publication US20250188059A1, “NOVEL COMPOUND AND USE THEREOF FOR INHIBITING CHECKPOINT KINASE 2” (ARUM THERAPEUTICS INC, priority 2022, published 2025).
